EP4553077A1 (Kinoteck Therapeutics Co., Ltd, priority 2022, dated 2024)

Assays:
[1] = Pharmacokinetic test in rats; format: in vivo, male SD rats; details: rat, plasma, oral gavage administration, 10 mg/kg
Description: Rat pharmacokinetic experiments were performed using male SD rats, 180-220g, provided by Beijing Vital River Laboratory Animal Technology Co., Ltd. 3 rats that were fasted overnight were taken, and administered orally by gavage (10 mg/kg). Blood samples were collected before administration, as well as 5, 15, 30 min and 1, 2, 4, 6, 8, 24 h after administration; another 3 rats were taken and administered intravenously (1 mg/kg), blood samples were collected before administration, as well as 5, 15, 30 min and 1, 2, 4, 6, 8, 24 h after administration. Blood sample was centrifuged at 6800g, 2-8 °C for 6 min, and plasma was collected, and stored at -80 °C. Plasma of each time point was taken, 10 times the amount of 50% methanol acetonitrile solution containing internal standard was added, and mixed by vortex for 5 min, centrifuged at 18000 rpm at 4 °C for 10 min, and the supernatant was taken directly for LC-MS/MS analysis. The main pharmacokinetic parameters were analyzed using WinNonlin8.2 software for non compartmental model analysis. Table 3: pharmacokinetic test in rats results of test compounds

[2] = biological target: CYP2D6 (Homo sapiens, UniProt P10635); test: Cytochrome P450 inhibition in human liver microsomes
Description: (§3) Preparation of positive control inhibitor and compound working solution: 16 µL inhibitor stock solution or compound stock solution for each CYP subtype were taken and added to 24 µL DMSO. Then, they were diluted gradually three times with diluent to obtain different concentrations of test sample/positive control inhibitor working solution (7 concentrations each except for blank)
(§4) Preparation of liver microsomal working solution: 300 µL human liver microsomes (20.0 mg/mL) was taken and added to 29700 µL PBS and mixed well, and the concentration of the prepared human liver microsomal working solution was 0.200 mg/mL.
(§5) Preparation of 4 x NADPH working solution: A certain weight of NADPH tetrasodium salt was weighted and dissolved to a suitable volume of PBS to obtain NADPH working solution, with a concentration of 8.00 mM.
(§6) Preparation of test sample group working solution: The human liver microsomal working solution was divided into 96 well plates at 796 µL per well, and then 4 µL test sample working solution was added.
(§7) Preparation of positive control group working solution: The human liver microsomal working solution was divided into 96 well plates at 199 µL per well, and then 1 µL positive control inhibitor working solution was added.
(§8) Blank solvent working solution preparation: The human liver microsomal working solution was divided into 96 well plates at 199 µL per well, and then 1 µL DMSO was added.
(§9) (a) 30 µL test sample/positive control inhibitor working solution or 30 µL blank solvent working solution per well were transferred into a 96 well plate, and 15 µL substrate working solution of different enzyme subtypes transferred into each well, and mixed evenly. (b) The above incubation plates and 4 x NADPH working solution were preheated at 37 °C for 5 min. (c) 15 µL preheated 4 × NADPH working solution per well was transferred into the incubation plate, and the reaction initiated, and continued to be incubated at 37 °C. The incubation time is as follows:
(§10) (d) After the reaction time was reached, 180 µL termination solution was added to terminate the reaction. […] (f) After centrifugation, 80 µL supernatant was taken and added to 120 µL ultrapure water, and after it was mixed evenly, LC-MS/MS was used to analyze the metabolites of the probe substrate.

[3] = biological target: CYP3A4 (Homo sapiens, UniProt P08684); test: as above
Description: as §3, §4, §5, §6, §7, §8, §9, §10

[4] = biological target: Ba/F3-TEL-FGFR2 (Homo sapiens, UniProt P21802+P41212); test: Cell viability (proliferation inhibition) of Ba/F3 cells, CellTiter Glo; details: read-out: Ba/F3 cell FGFR2 (IC50 nM), 72 h
[5] = biological target: Ba/F3-TEL-FGFR1 (Homo sapiens, UniProt P11362+P41212); test: as above; details: read-out: Ba/F3 cell FGFR1 (IC50 nM), 72 h
[6] = biological target: Ba/F3-TEL-FGFR3 (Homo sapiens, UniProt P22607+P41212); test: as above; details: read-out: Ba/F3 cell FGFR3 (IC50 nM), 72 h
[7] = Rat liver cells metabolic stability; format: in vitro ADME; details: rat liver cells 0.5 × 10^6 cells/mL
Description: Test compound and control drug verapamil powder were prepared into […] stock solution using DMSO, and they were diluted with 50% acetonitrile/50% water to 100 µM working solution before use.
• 1) 49.5 mL Williams E Medium and 0.5 mL glutaMAX were mixed as incubation medium. The liver cell resuscitation solution and incubation solution were preheated in a 37 °C water bath for at least 15 min before use. • 2) A tube of liver cells stored at ultra-low temperature was taken and ensured that they remain in a low-temperature frozen state before resuscitation. The liver cells were placed quickly in a 37 °C water bath and shaken gently until all ice crystals were dispersed. • 3) The contents of the liver cells tubes were poured into a centrifuge tube containing 50 mL of resuscitation medium, and they were centrifuged at 100 g for 10 min. After centrifugation, the resuscitation medium was aspirated, and sufficient incubation medium was added to obtain a cell suspension with a cell density of approximately 1.0 × 10^6 cells/mL. • 4) AO/PI staining was used to count liver cells and determine viable cell density, the survival rate of liver cells must be greater than 75%. The liver cell suspension was diluted with incubation medium to a viable cell density of 0.5 × 10^6 cells/mL.
• 1) 198 µL live cell suspension was transferred to a 96 well deep well plate, and the deep well plate was placed on a vortex and preheat in the incubator for 10 min. • 2) 2 µL 100 µM test compound or positive control compound was added to each well for reaction initiation, and the deep well plate was placed back on the incubator vortex. • 3) The incubation plate was placed into the incubator for incubation. 25 µL suspension was taken at 0.5, 15, 30, 60, 90, and 120 min, and 6-fold (150 µL) acetonitrile containing internal standard quencher (100 nM alprazolam, 200 nM caffeine, and 100 nM toluenesulfonylbutamide) was added to a new 96 well plate to terminate the reaction. The plate was vortexed for 5 min and centrifuged at 3220 rpm and 4 °C for 45 min to precipitate the protein. 100 µL of supernatant was transferred to the sample plate, and 100 µL pure water was added and mixed well for UPLC-MS/MS analysis. All incubation systems were conducted in a dual parallel manner.
All data was calculated using Microsoft Excel software. Peak area was detected by extracting ion chromatogram. In vitro half-life (T1/2) and in vitro clearance rate (in µL/min/10^6 cells) of the parent drug were detected by linearly fitting of the natural logarithm of the […] percentage of the parent drug versus time. Table 6 Results of rat liver cell stability test

[8] = tested on: A204 cells; test: Proliferation inhibition, CCK-8 colorimetric method; format: cell-based; details: Homo sapiens, 72 h
Description: (§1) CCK-8 (Bimake/B34304) colorimetric method was used to detect the in vitro proliferation inhibitory effect of compounds on suspended or adherent cells in this experiment. The specific experimental steps were as follows: • 1) Cell plating: SNU16 and A204 tumor cells (cells from Shanghai Institute of Organic Chemistry, Chinese Academy of Sciences) in the logarithmic growth phase were digested and centrifuged for trypan blue counting, and the cells were seeded into a transparent 96 well plate at a density of 4000 cells/100 µ 1/well. […] The test compound and control compound stock solution were diluted with the corresponding culture medium required for cell culture (with or without solvent DMSO) to obtain a series of working solutions, with concentrations of twice the final concentration. The solvent DMSO contents in each concentration group were consistent with that of the solvent control group. The final concentration of A204 cells started at 10 µM and was diluted twice.
(§2) Calculation of cell survival rate: Cell survival rate (%)=[(As-Ac)/(Ab-Ac)] × 100%] (As: experimental well; Ab: Solvent control well; Ac: Blank well).

[9] = tested on: SNU16 cells; test: as above; format: cell-based; details: Homo sapiens, SNU-16, 72 h
Description: as §1, §2

[10] = Human liver microsomes stability test; format: in vitro ADME; details: human liver microsomes 0.5 mg/mL, compound 1.0 µM
Description: Human liver microsomes stability test was performed by co-incubating compounds with human liver microsomes in vitro. Firstly, a 10 mM stock solution of the test compound in DMSO solvent was prepared, and then the compound was diluted with methanol to a 0.15 mM working solution. A certain amount PBS, 12mM MgCl2, human liver microsomes (Corning), and compound working solution were mixed to achieve a compound concentration of 1.0 µM, a human liver microsome concentration of 0.5 mg/mL, and the MgCl2 concentration of 3 mM in the reaction system. A deep well plate was taken, 270 µL microsomal buffer mixture solution was added to each well, and then 30 µL preheated 10 mM NADPH solution was added to initiate the reaction, and it was incubated at 37 °C. At 0, 5, 15, 30, and 60 min of incubation, 200 µL methanol: acetonitrile = 1: 1 containing an internal standard was added to the corresponding well to terminate the reaction. After the reaction was terminated at the last 60 min, the deep well plate was subjected to vortex vibration for 5 min (600 rpm/min), and then centrifugated for 10 min. After centrifugation, the supernatant was taken, and purified water was added at a 1:1 ratio for LC-MS/MS detection, and the peak area ratio of the compound to the internal standard at each time point was obtained, and the peak area ratio of the compound at 5, 15, 30, and 60 min was compared with the peak area ratio at 0 minute to calculate the remaining percentage of the compound at each time point, and T1/2 was calculated using Graphpad 7 software. Table 2 Results of human liver microsomes stability test

[11] = biological target: T1, CYP1A2 (Homo sapiens, UniProt P05177); test: Cytochrome P450 inhibition in human liver microsomes
T1 sequence (P05177 1-516): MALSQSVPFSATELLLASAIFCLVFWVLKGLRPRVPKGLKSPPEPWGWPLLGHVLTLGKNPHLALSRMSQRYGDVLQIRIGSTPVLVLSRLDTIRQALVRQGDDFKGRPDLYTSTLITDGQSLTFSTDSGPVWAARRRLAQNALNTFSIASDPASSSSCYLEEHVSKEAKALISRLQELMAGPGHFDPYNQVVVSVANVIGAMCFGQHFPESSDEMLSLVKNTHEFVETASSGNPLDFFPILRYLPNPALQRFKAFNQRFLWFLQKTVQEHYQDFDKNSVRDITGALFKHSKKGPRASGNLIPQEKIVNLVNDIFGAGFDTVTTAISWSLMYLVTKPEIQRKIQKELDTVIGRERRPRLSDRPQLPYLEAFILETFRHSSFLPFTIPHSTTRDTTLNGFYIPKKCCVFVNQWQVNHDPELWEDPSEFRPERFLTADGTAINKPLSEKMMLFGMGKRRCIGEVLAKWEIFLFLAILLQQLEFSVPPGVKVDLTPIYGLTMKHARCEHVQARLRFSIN
Description: as §3, §6, §7, §8
(§11) (a) 30 µL test sample/positive control inhibitor working solution or 30 µL blank solvent working solution per well were transferred into a 96 well plate, and 15 µL substrate working solution of different enzyme subtypes transferred into each well, and mixed evenly. (b) The above incubation plates and 4 x NADPH working solution were preheated at 37 °C for 5 min. (c) 15 µL preheated 4 × NADPH working solution per well was transferred into the incubation plate, and the reaction initiated, and continued to be incubated at 37 °C.
as §10

[12] = biological target: CYP2C9 (Homo sapiens, UniProt P11712); test: as above
Description: as §3, §6, §7, §8, §11, §10

[13] = biological target: CYP2C19 (Homo sapiens, UniProt P33261); test: as above
Sequence of CYP2C19 (P33261 whole entry): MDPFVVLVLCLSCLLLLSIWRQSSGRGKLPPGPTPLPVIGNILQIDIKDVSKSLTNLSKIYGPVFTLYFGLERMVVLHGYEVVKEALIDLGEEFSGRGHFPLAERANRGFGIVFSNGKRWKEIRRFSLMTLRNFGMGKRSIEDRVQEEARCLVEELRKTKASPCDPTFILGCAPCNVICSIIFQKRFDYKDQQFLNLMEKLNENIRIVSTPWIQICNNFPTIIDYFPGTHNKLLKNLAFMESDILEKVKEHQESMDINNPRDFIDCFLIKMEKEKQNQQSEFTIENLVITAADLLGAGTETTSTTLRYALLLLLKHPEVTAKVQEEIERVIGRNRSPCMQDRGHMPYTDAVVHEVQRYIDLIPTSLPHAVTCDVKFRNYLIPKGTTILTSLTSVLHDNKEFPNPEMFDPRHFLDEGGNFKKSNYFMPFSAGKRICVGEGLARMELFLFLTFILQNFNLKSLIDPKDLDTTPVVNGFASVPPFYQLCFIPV
Description: as §3, §6, §7, §8, §11, §10

Sequence of Ba/F3-TEL-FGFR1 (P11362 478-767 limits assumed, one chain of several): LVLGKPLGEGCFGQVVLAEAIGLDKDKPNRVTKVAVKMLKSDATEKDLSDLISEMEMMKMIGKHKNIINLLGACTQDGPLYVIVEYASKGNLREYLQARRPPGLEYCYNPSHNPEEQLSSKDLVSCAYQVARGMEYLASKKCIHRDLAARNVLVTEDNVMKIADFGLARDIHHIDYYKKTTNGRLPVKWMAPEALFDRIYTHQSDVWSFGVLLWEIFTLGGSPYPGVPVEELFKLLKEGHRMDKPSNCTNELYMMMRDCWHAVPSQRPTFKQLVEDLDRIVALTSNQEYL
Sequence of CYP3A4 (P08684 whole entry): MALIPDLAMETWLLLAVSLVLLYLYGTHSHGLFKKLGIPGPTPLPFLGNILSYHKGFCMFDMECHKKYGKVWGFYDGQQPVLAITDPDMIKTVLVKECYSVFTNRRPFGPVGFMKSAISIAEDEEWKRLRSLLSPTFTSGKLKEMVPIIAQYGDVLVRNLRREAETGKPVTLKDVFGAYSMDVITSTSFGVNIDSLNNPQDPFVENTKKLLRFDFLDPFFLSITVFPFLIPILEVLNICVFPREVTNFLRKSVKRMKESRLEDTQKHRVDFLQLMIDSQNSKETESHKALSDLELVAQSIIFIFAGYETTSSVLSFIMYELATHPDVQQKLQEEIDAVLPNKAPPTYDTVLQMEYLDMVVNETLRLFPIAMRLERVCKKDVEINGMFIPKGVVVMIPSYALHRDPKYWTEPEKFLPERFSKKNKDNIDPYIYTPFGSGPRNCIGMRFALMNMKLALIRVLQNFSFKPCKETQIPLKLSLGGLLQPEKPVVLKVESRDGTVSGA
Sequence of Ba/F3-TEL-FGFR2 (P21802 481-770 limits assumed, one chain of several): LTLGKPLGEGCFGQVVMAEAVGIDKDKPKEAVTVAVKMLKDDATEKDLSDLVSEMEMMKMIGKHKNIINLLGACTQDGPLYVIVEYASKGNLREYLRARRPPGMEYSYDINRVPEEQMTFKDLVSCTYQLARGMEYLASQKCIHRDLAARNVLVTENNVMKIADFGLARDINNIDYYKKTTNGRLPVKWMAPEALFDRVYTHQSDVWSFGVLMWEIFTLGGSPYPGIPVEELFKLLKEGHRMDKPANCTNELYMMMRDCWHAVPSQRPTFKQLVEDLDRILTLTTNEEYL
Sequence of CYP2D6 (P10635 whole entry): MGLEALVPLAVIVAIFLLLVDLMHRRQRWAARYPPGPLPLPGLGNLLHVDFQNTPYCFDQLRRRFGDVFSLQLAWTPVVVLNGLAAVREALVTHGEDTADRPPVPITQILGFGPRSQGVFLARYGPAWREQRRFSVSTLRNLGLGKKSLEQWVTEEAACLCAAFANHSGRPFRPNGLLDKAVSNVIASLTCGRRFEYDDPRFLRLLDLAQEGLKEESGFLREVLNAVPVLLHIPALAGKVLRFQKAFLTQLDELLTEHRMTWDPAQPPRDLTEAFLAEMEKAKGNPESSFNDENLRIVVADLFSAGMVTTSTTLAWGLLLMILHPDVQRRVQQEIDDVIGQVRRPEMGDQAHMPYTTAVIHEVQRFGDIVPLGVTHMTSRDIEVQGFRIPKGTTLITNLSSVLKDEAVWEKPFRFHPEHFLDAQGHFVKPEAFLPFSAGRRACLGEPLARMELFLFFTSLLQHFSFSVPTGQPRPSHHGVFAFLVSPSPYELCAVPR
Sequence of Ba/F3-TEL-FGFR3 (P22607 472-761 limits assumed, one chain of several): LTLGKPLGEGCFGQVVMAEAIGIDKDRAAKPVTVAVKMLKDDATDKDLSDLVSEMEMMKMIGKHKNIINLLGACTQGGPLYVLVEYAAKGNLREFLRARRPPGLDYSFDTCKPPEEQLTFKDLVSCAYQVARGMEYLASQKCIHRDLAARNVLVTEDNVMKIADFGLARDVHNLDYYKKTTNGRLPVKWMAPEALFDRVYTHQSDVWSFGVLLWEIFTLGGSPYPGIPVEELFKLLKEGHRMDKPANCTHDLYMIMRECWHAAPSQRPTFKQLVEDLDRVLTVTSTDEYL
Sequence of CYP2C9 (P11712 whole entry): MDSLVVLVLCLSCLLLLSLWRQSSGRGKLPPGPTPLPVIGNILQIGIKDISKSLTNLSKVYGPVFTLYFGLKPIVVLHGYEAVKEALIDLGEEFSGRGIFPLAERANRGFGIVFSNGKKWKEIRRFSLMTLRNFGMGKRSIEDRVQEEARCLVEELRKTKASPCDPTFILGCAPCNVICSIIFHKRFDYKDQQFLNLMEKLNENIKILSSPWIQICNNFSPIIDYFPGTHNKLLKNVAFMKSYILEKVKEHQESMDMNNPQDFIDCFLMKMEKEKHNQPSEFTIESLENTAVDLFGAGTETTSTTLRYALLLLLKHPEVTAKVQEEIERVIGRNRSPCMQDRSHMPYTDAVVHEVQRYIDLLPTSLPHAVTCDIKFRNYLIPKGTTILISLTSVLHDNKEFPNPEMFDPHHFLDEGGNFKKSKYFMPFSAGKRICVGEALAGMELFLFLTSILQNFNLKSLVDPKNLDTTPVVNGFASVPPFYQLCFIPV

C=C(C)C(=O)Nc1ccc(-c2c(-c3ccc(N=S4(=O)CCCC4)c(F)c3)c3c(N)ncnc3n2C)cc1 [Compound 33, N-(4-(4-amino-5-(3-fluoro-4-((1-oxotetrahydro-1 λ^6-thiophene-1-ylidene)amino)phenyl) -7-methyl-7H-pyrrolo [2,3-d]pyrimidin-6-yl)phenyl) methacrylamide]
AUC(0-t) ([1]; male, SD): 778 ng·h/mL | Cmax ([1]; male, SD): 306 ng/mL | Tmax ([1]; male, SD): 25.2 min | half-life ([1]; male, SD): 79.2 min | IC50 [2]: 9.52 µM | IC50 [3]: 19.2 µM | IC50 [4]: 11.2 nM | IC50 [5]: 2310 nM | IC50 [6]: 1290 nM

C=C(C)C(=O)Nc1ccc(-c2c(-c3ccc(N=S4(=O)CCCC4)c(F)c3)c3c(N)ncnc3n2C)c(F)c1 [Compound 23, N-(4-(4-amino-5-(3-fluoro-4-((1-oxotetrahydro-1 λ^6-thiophene-1-ylidene)amino)phenyl) -7-methyl-7H-pyrrolo [2,3-d]pyrimidin-6-yl) -3-fluorophenyl) methacrylamide]
Remaining percentage of compound after 60 min of incubation (%) [7]: 24.45% | hepatocyte CLint at 1 µM ([7]; rat liver cells (cryopreserved hepatocytes in suspension), read-out: in vitro CLint (µL/min/10^6 cells)): 48.4 µL/min/1e6 cells | half-life at 1 µM ([7]; rat liver cells (cryopreserved hepatocytes in suspension), read-out: in vitro t1/2): 28.6 min | IC50 [8]: 618 nM | IC50 [9]: 2.4 nM | IC50 [4]: 0.7 nM | IC50 [5]: 568 nM

C=C(C)C(=O)Nc1ccc(-c2c(-c3ccc(N=S4(=O)CCC4)c(F)c3)c3c(N)ncnc3n2C)cc1 [Compound 56]
IC50 [2]: 5.54 µM | IC50 [3]: 13.2 µM | IC50 [4]: 12.6 nM

C=C(C)C(=O)Nc1ccc(-c2c(-c3ccc(N=S4(=O)CCCCC4)cc3)c3c(N)ncnc3n2C)cc1 [Compound 4, N-(4-(4-amino-7-methyl-5-(4-(1-oxotetrahydro-2H-1λ^6-thiopyran-1-imino)phenyl) -7H-pyrrolo [2,3-d]pyrimidin-6-yl)phenyl) methacrylamide]
CLint scaled at 1 µM [10]: 14.6 mL/min/kg | half-life at 1 µM [10]: 85.6 min | Remaining percentage of compound after 60 min of incubation (%) ([10]; 60 min): 61.6% | IC50 [4]: 9.9 nM | IC50 [5]: 2370 nM | IC50 [6]: 3360 nM

C=C(C)C(=O)Nc1ccc(-c2c(-c3ccc(N=S(=O)(CC)CC)cc3)c3c(N)ncnc3n2C)c(F)c1 [Compound 58]
AUC(0-t) [1]: 1420 ng·h/mL | Cmax [1]: 604 ng/mL | Tmax [1]: 30 min | half-life [1]: 191 min | IC50 [8]: 1270 nM | IC50 [9]: 9.52 nM | IC50 [11]: > 10 µM | IC50 [12]: 29.7 µM | IC50 [13]: 5.42 µM | IC50 [2]: 9.81 µM | IC50 [3]: > 10 µM | IC50 [4]: 3 nM | IC50 [5]: 2030 nM | IC50 [6]: 442 nM

[2H]C([2H])([2H])n1c(-c2ccc(NC(=O)C(=C)C)cc2F)c(-c2ccc(N=S3(=O)CCCC3)cc2)c2c(N)ncnc21 [Compound 83, N-(4-(4-amino-7-(methyl-d3)-5-(4-(1-oxotetrahydro-1 λ^6-thiophene-1-imino)phenyl)-7H-pyrrolo[2,3-d]pyrimidin-6-yl)-3-fluorophenyl)methacrylamide]
AUC(0-t) [1]: 1480 ng·h/mL | Cmax [1]: 414 ng/mL | Tmax [1]: 19.8 min | half-life [1]: 112 min | hepatocyte CLint ([7]; hepatocytes, read-out: in vitro CLint (µL/min/10^6 cells)): 37.3 µL/min/1e6 cells | half-life ([7]; hepatocytes, read-out: in vitro t1/2): 37.1 min | Remaining percentage of compound after 60 min of incubation (%) [7]: 35.86% | IC50 [11]: > 10 µM | IC50 [12]: 14.4 µM | IC50 [13]: 14.1 µM | IC50 [2]: 8.77 µM | IC50 [3]: 11.6 µM | IC50 [4]: 1.1 nM | IC50 [5]: 661 nM | IC50 [6]: 319 nM

C=C(C)C(=O)Nc1ccc(-c2c(-c3ccc(N=S(=O)(CC)CC)c(F)c3)c3c(N)ncnc3n2C)cc1 [Compound 9, N-(4-(4-amino-5-(4-(diethyl (oxo) 1 λ^6-sulfanylidene) -3-fluorophenyl) -7-methyl 7H-pyrrolo [2,3-d]pyrimidin-6-yl) - phenyl) methacrylamide]
IC50 [2]: 24.6 µM | IC50 [3]: 13.5 µM | IC50 [4]: 14.9 nM
